Blank lines part the entries; values can stand above or below the compound they belong to.
Molecular target: T1, Axl (Homo sapiens, UniProt P30530)
T1 construct: endogenous in cells; host or cells: HeLa cells
T1 sequence (P30530 26-894): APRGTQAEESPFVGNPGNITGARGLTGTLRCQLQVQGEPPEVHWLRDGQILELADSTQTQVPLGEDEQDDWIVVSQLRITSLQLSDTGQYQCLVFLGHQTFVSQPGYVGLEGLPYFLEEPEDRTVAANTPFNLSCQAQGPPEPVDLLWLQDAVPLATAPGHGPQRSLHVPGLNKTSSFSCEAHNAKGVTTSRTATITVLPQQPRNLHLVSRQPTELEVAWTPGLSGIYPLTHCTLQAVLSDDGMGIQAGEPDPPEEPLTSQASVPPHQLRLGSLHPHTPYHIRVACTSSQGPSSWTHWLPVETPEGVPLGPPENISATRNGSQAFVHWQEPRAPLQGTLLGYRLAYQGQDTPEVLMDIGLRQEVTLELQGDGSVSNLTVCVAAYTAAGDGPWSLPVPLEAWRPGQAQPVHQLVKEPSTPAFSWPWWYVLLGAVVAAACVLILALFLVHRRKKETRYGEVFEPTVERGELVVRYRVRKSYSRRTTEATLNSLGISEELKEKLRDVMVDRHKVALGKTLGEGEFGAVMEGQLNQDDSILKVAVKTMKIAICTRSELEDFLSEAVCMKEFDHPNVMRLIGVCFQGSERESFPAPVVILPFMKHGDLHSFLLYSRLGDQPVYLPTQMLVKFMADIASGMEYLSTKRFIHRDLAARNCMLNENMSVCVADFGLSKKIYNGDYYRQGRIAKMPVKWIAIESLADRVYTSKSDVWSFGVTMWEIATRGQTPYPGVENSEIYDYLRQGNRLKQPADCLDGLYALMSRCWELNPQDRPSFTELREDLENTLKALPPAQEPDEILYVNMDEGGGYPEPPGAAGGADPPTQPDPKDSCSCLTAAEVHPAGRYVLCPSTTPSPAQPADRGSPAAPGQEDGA
Assay: Phospho-Akt in-cell Western assay (inhibition of Axl activity)
Assay type: cell-based
How it was run: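 HeLa cells on poly-L-lysine, starved 24 h in 0.5% FCS DMEM with Axl/Fc 500 ng/mL, pre-treated with compound 1 h at 37° C. Axl stimulated 5 min by anti-Axl/anti-mouse antibody cross-linking. Fixed cells probed with anti-phospho-Akt and HRP secondary, chemiluminescence read.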

[1] = Table 5, Hela cells, Axl antibody cross-linking stimulation, phospho-Akt chemiluminescence
[2] = Table 6, Hela cells, Axl antibody cross-linking stimulation, phospho-Akt chemiluminescence
[3] = inhibition of Axl activity, phospho-Akt in-cell Western assay, Table 1
[4] = Table 2, Hela cells, Axl antibody cross-linking stimulation, phospho-Akt chemiluminescence
[5] = Table 3, Hela cells, Axl antibody cross-linking stimulation, phospho-Akt chemiluminescence

SMILES: CC(C)(C)Oc1cccc(C(=O)n2nc(NC3C4C=CC(C4)C3C(N)=O)nc2N)c1 (stereo not shown) [compound 348, 5-amino-1-(3-(tert-butoxy)phenyl)carbonyl-3-[(5-(aminocarbonyl)bicyclo[2.2.1]hept-2-en-6-yl)amino]-1H-1,2,4-triazole]
IC50 [1]: > 20 µM

IC50 [2]: > 20 µM
SMILES: CN(C)c1ccc(C(=O)n2nc(N)nc2NC2C3C=CC(C3)C2C(N)=O)cc1 (stereo not shown) [compound 349, 3-amino-1-(4-(dimethylamino)phenyl)carbonyl-5-[(3-(aminocarbonyl)bicyclo[2.2.1]hept-5-en-2-yl)amino]-1H-1,2,4-triazole]

IC50 [1]: > 20 µM
SMILES: CN(C)c1ccc(C(=O)n2nc(NC3C4C=CC(C4)C3C(N)=O)nc2N)cc1 (stereo not shown) [compound 350, 5-amino-1-(4-(dimethylamino)phenyl)carbonyl-3-[(5-(aminocarbonyl)bicyclo[2.2.1]hept-2-en-6-yl)amino]-1H-1,2,4-triazole]

IC50 [2]: > 20 µM
SMILES: CN(C)c1cccc(C(=O)n2nc(N)nc2NC2C3C=CC(C3)C2C(N)=O)c1 (stereo not shown) [compound 351, 3-amino-1-(3-(dimethylamino)phenyl)carbonyl-5-[(3-(aminocarbonyl)bicyclo[2.2.1]hept-5-en-2-yl)amino]-1H-1,2,4-triazole]

IC50 [1]: > 20 µM
SMILES: CN(C)c1cccc(C(=O)n2nc(NC3C4C=CC(C4)C3C(N)=O)nc2N)c1 (stereo not shown) [compound 352, 5-amino-1-(3-(dimethylamino)phenyl)carbonyl-3-[(5-(aminocarbonyl)bicyclo[2.2.1]hept-2-en-6-yl)amino]-1H-1,2,4-triazole]

IC50 [2]: > 20 µM
SMILES: CC(C)Oc1ccc(C(=O)n2nc(N)nc2NC2C3C=CC(C3)C2C(N)=O)cc1 (stereo not shown) [compound 353, 3-amino-1-(4-(iso-propoxy)phenyl)carbonyl-5-[(3-(aminocarbonyl)bicyclo[2.2.1]hept-5-en-2-yl)amino]-1H-1,2,4-triazole]

IC50 [1]: > 20 µM
SMILES: CC(C)Oc1ccc(C(=O)n2nc(NC3C4C=CC(C4)C3C(N)=O)nc2N)cc1 (stereo not shown) [compound 354, 5-amino-1-(4-(iso-propoxy)phenyl)carbonyl-3-[(5-(aminocarbonyl)bicyclo[2.2.1]hept-2-en-6-yl)-amino]-1H-1,2,4-triazole]

IC50 (Table 10, Hela cells, Axl antibody cross-linking stimulation, phospho-Akt chemiluminescence): > 20 µM
SMILES: NC(=O)C1C2C=CC(C2)C1Nc1nc(N)nn1C(=O)c1ccc2cc[nH]c2c1 (stereo not shown) [compound 355, 3-amino-1-(1H-indol-6-yl)carbonyl-5-[(3-(aminocarbonyl)bicyclo[2.2.1]hept-5-en-2-yl)amino]-1H-1,2,4-triazole]

IC50 (Table 9, Hela cells, Axl antibody cross-linking stimulation, phospho-Akt chemiluminescence): > 20 µM
SMILES: NC(=O)C1C2C=CC(C2)C1Nc1nc(N)n(C(=O)c2ccc3cc[nH]c3c2)n1 (stereo not shown) [compound 356, 5-amino-1-(1H-indol-6-yl)carbonyl-3-[(5-(aminocarbonyl)bicyclo[2.2.1]hept-2-en-6-yl)amino]-1H-1,2,4-triazole]

SMILES: CN1CCN(c2ccc(Nc3nc(N)n(C(=O)c4ccc(OC(C)(C)C)cc4)n3)cc2)CC1 [compound 357, 5-amino-1-(4-(tert-butoxy)phenyl)carbonyl-3-[4-(4-methylpiperazin-1-yl)phenylamino]-1H-1,2,4-triazole]
IC50 [3]: < 1 µM

SMILES: CN1CCN(c2ccc(Nc3nc(N)n(C(=O)c4cccc(OC(C)(C)C)c4)n3)cc2)CC1 [compound 358, 5-amino-1-(3-(tert-butoxy)phenyl)carbonyl-3-[4-(4-methylpiperazin-1-yl)phenylamino]-1H-1,2,4-triazole]
IC50 [3]: < 1 µM

IC50 [3]: < 1 µM
SMILES: CC(C)Oc1ccc(C(=O)n2nc(Nc3ccc(N4CCN(C)CC4)cc3)nc2N)cc1 [compound 359, 5-amino-1-(4-(iso-propoxy)phenyl)carbonyl-3-[4-(4-methylpiperazin-1-yl)phenylamino]-1H-1,2,4-triazole]

IC50 [4]: 1 to 10 µM
SMILES: CC(C)Oc1ccc(C(=O)n2nc(N)nc2Nc2ccc(N3CCN(C)CC3)cc2)cc1 [compound 360, 3-amino-1-(4-(iso-propoxy)phenyl)carbonyl-5-(4-(4-methylpiperazin-1-yl)phenylamino]-1H-1,2,4-triazole]

IC50 [3]: < 1 µM
SMILES: CN1CCN(c2ccc(Nc3nc(N)n(C(=O)c4ccc(N(C)C)cc4)n3)cc2)CC1 [compound 361, 5-amino-1-(4-(dimethylamino)phenyl)carbonyl-3-[4-(4-methylpiperazin-1-yl)phenylamino]-1H-1,2,4-triazole]

IC50 [4]: 1 to 10 µM
SMILES: CN1CCN(c2ccc(Nc3nc(N)nn3C(=O)c3ccc(N(C)C)cc3)cc2)CC1 [compound 362, 3-amino-1-(4-(dimethylamino)phenyl)carbonyl-5-(4-(4-methylpiperazin-1-yl)phenylamino]-1H-1,2,4-triazole]

IC50 [3]: < 1 µM
SMILES: CN1CCN(c2ccc(Nc3nc(N)n(C(=O)c4cccc(N(C)C)c4)n3)cc2)CC1 [compound 363, 5-amino-1-(3-(dimethylamino)phenyl)carbonyl-3-[4-(4-methylpiperazin-1-yl)phenylamino]-1H-1,2,4-triazole]

IC50 [4]: 1 to 10 µM
SMILES: CN1CCN(c2ccc(Nc3nc(N)nn3C(=O)c3cccc(N(C)C)c3)cc2)CC1 [compound 364, 3-amino-1-(3-(dimethylamino)phenyl)carbonyl-5-(4-(4-methylpiperazin-1-yl)phenylamino]-1H-1,2,4-triazole]

IC50 [5]: > 20 µM
SMILES: CN1CCN(c2ccc(Nc3nc(N)n(C(=O)C4CC5CCC4C5)n3)cc2)CC1 (stereo not shown) [compound 365, 5-amino-1-(bicyclo[2.2.1]heptan-2-yl)carbonyl-3-[4-(4-methylpiperazin-1-yl)phenylamino]-1H-1,2,4-triazole]

IC50 [5]: 1 to 10 µM
SMILES: Nc1nc(Nc2ccc(OCCN3CCCC3)cc2)nn1C(=O)c1c[nH]c2ccccc12 [compound 366, 5-amino-1-(1H-indol-3-yl)carbonyl-3-[4-[2-(pyrrolidin-1-yl)ethoxy]phenylamino]-1H-1,2,4-triazole]

IC50 [5]: < 1 µM
SMILES: Nc1nc(Nc2ccc(OCCN3CCCC3)cc2)nn1C(=O)c1cc2ccccc2s1 [compound 367, 5-amino-1-(benzo[b]thiophen-2-yl)carbonyl-3-[4-[2-(pyrrolidin-1-yl)ethoxy]phenylamino]-1H-1,2,4-triazole]

IC50 (Table 4, Hela cells, Axl antibody cross-linking stimulation, phospho-Akt chemiluminescence): 1 to 10 µM
SMILES: Nc1nc(Nc2ccc(OCCN3CCCC3)cc2)n(C(=O)c2cc3ccccc3s2)n1 [compound 368, 3-amino-1-(benzo[b]thiophen-2-yl)carbonyl-5-[4-[2-(pyrrolidin-1-yl)ethoxy]phenylamino]-1H-1,2,4-triazole]

IC50 [5]: < 1 µM
SMILES: Nc1nc(Nc2ccc(OCCN3CCCC3)cc2)nn1C(=O)c1ccc2sccc2c1 [compound 369, 5-amino-1-(benzo[b]thiophen-5-yl)carbonyl-3-[4-[2-(pyrrolidin-1-yl)ethoxy]phenylamino]-1H-1,2,4-triazole]

SMILES: CC(C)(C)Oc1ccc(C(=O)n2nc(Nc3ccc(OCCn4ccnc4)cc3)nc2N)cc1 [compound 370, 5-amino-1-(4-(tert-butoxy)phenyl)carbonyl-3-[4-[2-(imidazol-1-yl)ethoxy]phenylamino]-1H-1,2,4-triazole]
IC50 [3]: < 1 µM

SMILES: CC(C)(C)Oc1cccc(C(=O)n2nc(Nc3ccc(OCCn4ccnc4)cc3)nc2N)c1 [compound 371, 5-amino-1-(3-(tert-butoxy)phenyl)carbonyl-3-[4-[2-(imidazol-1-yl)ethoxy]phenylamino]-1H-1,2,4-triazole]
IC50 [3]: 1 to 10 µM

IC50 [3]: < 1 µM
SMILES: CC(C)Oc1ccc(C(=O)n2nc(Nc3ccc(OCCn4ccnc4)cc3)nc2N)cc1 [compound 372, 5-amino-1-(4-(iso-propoxy)phenyl)carbonyl-3-[4-[2-(imidazol-1-yl)ethoxy]phenylamino]-1H-1,2,4-triazole]

Reference: US8389557B2, “Triazole derivatives useful as Axl inhibitors” (Rigel Pharmaceuticals, Inc., priority 2005, dated 2013)
